Measured values: PubChem BioAssay (NCI)
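Where inhibition never reached the appropriate level, the endpoint shown equals the highest concentration tested. Otherwise, values were interpolated linearly from a five-concentration, 48-hour dose response in 96-well plates. TGI is the concentration that stops growth completely.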

Tests used:
Test in all cases: NCI-60 cell line screen, 48 h
[1] = system: 786-0 renal
[2] = system: A498 renal
[3] = system: A549 NSCLC
[4] = system: ACHN renal
[5] = system: CAKI-1 renal
[6] = system: CCRF-CEM leukemia
[7] = system: COLO 205 colon
[8] = system: DLD-1 colon
[9] = system: DMS 114 small cell lung
[10] = system: DMS 273 small cell lung
[11] = system: EKVX NSCLC
[12] = system: HCC-2998 colon
[13] = system: HCT-116 colon
[14] = system: HCT-15 colon
[15] = system: HL-60(TB) leukemia
[16] = system: HOP-18 NSCLC
[17] = system: HOP-62 NSCLC
[18] = system: HOP-92 NSCLC
[19] = system: HT29 colon
[20] = system: IGROV1 ovarian
[21] = system: KM12 colon
[22] = system: KM20L2 colon
[23] = system: LOX IMVI melanoma
[24] = system: LXFL 529 NSCLC
[25] = system: M14 melanoma
[26] = system: M19-MEL melanoma
[27] = system: MALME-3M melanoma
[28] = system: MOLT-4 leukemia
[29] = system: NCI-H226 lung
[30] = system: NCI-H23 lung
[31] = system: NCI-H460 lung
[32] = system: OVCAR-3 ovarian
[33] = system: OVCAR-4 ovarian
[34] = system: OVCAR-5 ovarian
[35] = system: OVCAR-8 ovarian
[36] = system: RPMI-8226 leukemia
[37] = system: RXF 393 renal
[38] = system: RXF-631 renal
[39] = system: SF-268 CNS
[40] = system: SF-295 CNS
[41] = system: SF-539 CNS
[42] = system: SK-MEL-28 melanoma
[43] = system: SK-MEL-5 melanoma
[44] = system: SK-OV-3 ovarian
[45] = system: SN12C renal
[46] = system: SNB-19 CNS
[47] = system: SNB-75 CNS
[48] = system: SNB-78 CNS
[49] = system: SR leukemia
[50] = system: SW-620 colon
[51] = system: TK-10 renal
[52] = system: U251 CNS
[53] = system: UACC-257 melanoma
[54] = system: UACC-62 melanoma
[55] = system: UO-31 renal
[56] = system: XF 498 CNS
[57] = system: K-562 leukemia
[58] = system: SK-MEL-2 melanoma
[59] = system: NCI-H522 lung

`CCCCCCCCCCCCCCCCCC(=O)NCC(COP(=O)([O-])OCC[N+](C)(C)C)OC` (stereo not given) showed a TGI [1] of 3.07 µM, a TGI [2] of 10.3 µM and a TGI [3] of 22.4 µM. The TGI [4] was 22.7 µM, the TGI [5] was 8.14 µM and the TGI [6] was 5.66 µM. The TGI [7] was 3.24 µM, the TGI [8] was 8.17 µM and the TGI [9] was 22.7 µM. For the same compound, the TGI [10] was 2.93 µM, the TGI [11] was 31.1 µM and the TGI [12] was 2.31 µM. It also gave a TGI [13] of 18.5 µM, a TGI [14] of 5.89 µM and a TGI [15] of 2.9 µM. For the same compound, the TGI [16] was 6.92 µM, the TGI [17] was 8.21 µM and the TGI [18] was 8.17 µM. It also gave a TGI [19] of 12.9 µM, a TGI [20] of 4.72 µM and a TGI [21] of 2.09 µM. It also gave a TGI [22] of 5.5 µM, a TGI [23] of 23.3 µM and a TGI [24] of 19.7 µM. It also gave a TGI [25] of 25.5 µM, a TGI [26] of 6.28 µM and a TGI [27] of 20.9 µM. It also gave a TGI [28] of 3.56 µM, a TGI [29] of 8.69 µM and a TGI [30] of 28.7 µM. For the same compound, the TGI [31] was 2.59 µM, the TGI [32] was 10.2 µM and the TGI [33] was 13 µM. The TGI [34] was 14.4 µM, the TGI [35] was 23.6 µM and the TGI [36] was 4.67 µM. The TGI [37] was 2.1 µM, the TGI [38] was 26.8 µM and the TGI [39] was 17.5 µM. The TGI [40] was 13 µM, the TGI [41] was 31.8 µM and the TGI [42] was 30.6 µM. For the same compound, the TGI [43] was 29.5 µM, the TGI [44] was 28.7 µM and the TGI [45] was 15.3 µM. For the same compound, the TGI [46] was 3.48 µM, the TGI [47] was 15.8 µM and the TGI [48] was 13.6 µM. The TGI [49] was 7.36 µM, the TGI [50] was 22.9 µM and the TGI [51] was 3.02 µM. For the same compound, the TGI [52] was 4.04 µM, the TGI [53] was 30.2 µM and the TGI [54] was 16.9 µM. It also gave a TGI [55] of 30.7 µM and a TGI [56] of 8.58 µM.

`N#CC1(Cc2ccccc2)CCCCN1C(=O)c1ccccc1` (stereo not given) gave a TGI [1] greater than 100 µM, a TGI [2] greater than 100 µM and a TGI [3] greater than 100 µM. It also gave a TGI [4] greater than 100 µM, a TGI [6] greater than 100 µM and a TGI [7] greater than 100 µM. For the same compound, the TGI [8] was greater than 100 µM, the TGI [9] was greater than 100 µM and the TGI [10] was greater than 100 µM. The TGI [11] was greater than 100 µM, the TGI [12] was greater than 100 µM and the TGI [13] was greater than 100 µM. It also gave a TGI [14] greater than 100 µM, a TGI [15] greater than 100 µM and a TGI [16] greater than 100 µM. It also gave a TGI [17] greater than 100 µM, a TGI [18] greater than 100 µM and a TGI [19] greater than 100 µM. The TGI [20] was greater than 100 µM, the TGI [57] was greater than 100 µM and the TGI [21] was greater than 100 µM. The TGI [22] was greater than 100 µM, the TGI [23] was greater than 100 µM and the TGI [24] was greater than 100 µM. The TGI [25] was greater than 100 µM, the TGI [26] was greater than 100 µM and the TGI [27] was greater than 100 µM. The TGI [28] was greater than 100 µM, the TGI [30] was greater than 100 µM and the TGI [31] was greater than 100 µM. The TGI [32] was greater than 100 µM, the TGI [33] was greater than 100 µM and the TGI [34] was greater than 100 µM. The TGI [35] was greater than 100 µM, the TGI [36] was greater than 100 µM and the TGI [37] was greater than 100 µM. The TGI [38] was greater than 100 µM, the TGI [39] was greater than 100 µM and the TGI [40] was greater than 100 µM. For the same compound, the TGI [41] was greater than 100 µM, the TGI [58] was 9.11 µM and the TGI [42] was greater than 100 µM. It also gave a TGI [43] greater than 100 µM, a TGI [44] greater than 100 µM and a TGI [45] greater than 100 µM. It also gave a TGI [46] greater than 100 µM, a TGI [47] greater than 100 µM and a TGI [48] greater than 100 µM. For the same compound, the TGI [49] was greater than 100 µM, the TGI [50] was greater than 100 µM and the TGI [51] was greater than 100 µM. The TGI [52] was greater than 100 µM, the TGI [53] was greater than 100 µM and the TGI [54] was greater than 100 µM. The TGI [55] was greater than 100 µM and the TGI [56] was greater than 100 µM.

With `CCOC(=O)C1C(=O)CN2CCc3c([nH]c4ccccc34)C12C(=O)OCC` (stereo not given) the TGI [1] was greater than 100 µM, the TGI [2] was greater than 100 µM and the TGI [3] was greater than 100 µM. The TGI [4] was greater than 100 µM, the TGI [5] was greater than 100 µM and the TGI [6] was greater than 100 µM. It also gave a TGI [7] greater than 100 µM, a TGI [8] greater than 100 µM and a TGI [9] greater than 100 µM. It also gave a TGI [10] greater than 100 µM, a TGI [11] greater than 100 µM and a TGI [12] greater than 100 µM. The TGI [13] was greater than 100 µM, the TGI [14] was greater than 100 µM and the TGI [15] was greater than 100 µM. For the same compound, the TGI [16] was greater than 100 µM, the TGI [17] was greater than 100 µM and the TGI [18] was greater than 100 µM. For the same compound, the TGI [19] was greater than 100 µM, the TGI [20] was greater than 100 µM and the TGI [57] was greater than 100 µM. For the same compound, the TGI [21] was greater than 100 µM, the TGI [22] was greater than 100 µM and the TGI [23] was greater than 100 µM. For the same compound, the TGI [24] was greater than 100 µM, the TGI [25] was greater than 100 µM and the TGI [26] was greater than 100 µM. For the same compound, the TGI [27] was greater than 100 µM, the TGI [28] was greater than 100 µM and the TGI [29] was greater than 100 µM. For the same compound, the TGI [30] was greater than 100 µM, the TGI [31] was greater than 100 µM and the TGI [59] was greater than 100 µM. The TGI [32] was greater than 100 µM, the TGI [33] was greater than 100 µM and the TGI [34] was greater than 100 µM. For the same compound, the TGI [35] was greater than 100 µM, the TGI [37] was greater than 100 µM and the TGI [38] was greater than 100 µM. The TGI [39] was greater than 100 µM, the TGI [40] was greater than 100 µM and the TGI [41] was greater than 100 µM. For the same compound, the TGI [58] was greater than 100 µM, the TGI [42] was greater than 100 µM and the TGI [43] was greater than 100 µM. The TGI [44] was greater than 100 µM, the TGI [45] was greater than 100 µM and the TGI [46] was greater than 100 µM. It also gave a TGI [47] greater than 100 µM, a TGI [48] greater than 100 µM and a TGI [49] greater than 100 µM. It also gave a TGI [50] greater than 100 µM, a TGI [51] greater than 100 µM and a TGI [52] greater than 100 µM. For the same compound, the TGI [53] was greater than 100 µM, the TGI [54] was greater than 100 µM and the TGI [55] was greater than 100 µM. The TGI [56] was greater than 100 µM.
